# Laboratory results from patent US7868005B2, “Pyrazinyl substituted piperazine-piperidines with CXCR3 antagonist activity” (Schering Corporation, priority 2005, dated 2011).
# Molecular target: T1, human CXCR3 (N-delta 4) (Homo sapiens, UniProt P49682)
# T1 construct: CD8 leader (N); Flag; expressed in transfected cells; membranes prepared
# T1 sequence (P49682 5-368 limits assumed): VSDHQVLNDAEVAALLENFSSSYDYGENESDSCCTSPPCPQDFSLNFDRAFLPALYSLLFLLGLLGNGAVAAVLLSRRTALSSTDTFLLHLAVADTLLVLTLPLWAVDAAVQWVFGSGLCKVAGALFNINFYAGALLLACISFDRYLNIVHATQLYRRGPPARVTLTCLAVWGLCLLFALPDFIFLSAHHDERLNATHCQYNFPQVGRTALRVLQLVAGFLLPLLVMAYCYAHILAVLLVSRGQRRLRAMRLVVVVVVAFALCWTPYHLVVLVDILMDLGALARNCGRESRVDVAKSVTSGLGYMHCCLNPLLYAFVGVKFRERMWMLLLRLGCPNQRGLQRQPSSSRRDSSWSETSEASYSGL
# Test: Human CXCR3 (N-delta 4) Scintillation Proximity Assay (SPA), [125I] IP-10 binding to Ba/F3-hCXCR3 membranes
# Conditions: IC50 rating, Table 1; read-out: IC50
# Source text: The inventive compounds can readily be evaluated to determine activity at the CXCR3 receptors by known methods, such as, for example, development of a human CXCR3 (N-delta 4) Binding Assay.
# Cloning and Expression of Human CXCR3 (N-delta 4):
# The DNA encoding human CXCR3 was cloned by PCR using human genomic DNA (Promega, Madison, Wis.) as a template. The PCR primers were designed based on the published sequence of human orphan receptor GPR9 (1) with incorporated restriction sites, a Kozak consensus sequence, CD8 leader and Flag tag. The PCR product was subcloned into the mammalian expression vector pME18Sneo, a derivative of the SR-alpha expression vector (designated as pME18Sneo-hCXCR3 (N-delta 4).
# IL-3-dependent mouse pro-B cells Ba/F3 were transfected by electroporation in 0.4 ml Dulbecco's PBS containing 4×10^6 cells with 20 μg of pME18Sneo-hCXCR3 (N-delta 4) plasmid DNA. Cells were pulsed at 400 Volts, 100 OHMs, 960 μFd. The transfected cells were under selection with 1 mg/ml G418 (Life Technologies, Gaithersburg, Md.). G418-resistant Ba/F3 clones were screened for CXCR3 expression by specific binding of [^125I] IP-10 (NEN Life Science Products, Boston, Mass.).
# Preparation of Ba/F3-hCXCR3 (N-delta 4) Membranes:
# Ba/F3 cells expressing human CXCR3 (N-delta 4) were pelleted and resuspended in the lysis buffer containing 10 mM HEPES, pH 7.5 and Complete® protease inhibitors (1 tablet per 100 ml) (Boehringer Mannheim, Indianapolis, Ind.) at a cell density of 20×10^6 cells per ml. After 5 minute incubation on ice, cells were transferred to 4639 cell disruption bomb (Parr Instrument, Moline, Ill.) and applied with 1,500 psi of nitrogen for 30 minutes on ice. Large cellular debris was removed by centrifugation at 1,000×g. Cell membrane in the supernatant was sedimented at 100,000×g. The membrane was resuspended in the lysis buffer supplemented with 10% sucrose and stored at −80° C. Total protein concentration of the membrane was determined by BCA method from Pierce (Rockford, Ill.).
# Human CXCR3 (N-delta 4) Scintillation Proximity Assay (SPA):
# For each assay point, 2 μg of membrane was preincubated for 1 hr with 300 μg wheat germ agglutinin (WGA) coated SPA beads (Amersham, Arlington Heights, Ill.) in the binding buffer (50 mM HEPES, 1 mM CaCl2, 5 mM MgCl2, 125 mM NaCl, 0.002% NaN3, 1.0% BSA) at room temperature. The beads were spun down, washed once, resuspended in the binding buffer and transferred to a 96-well Isoplate (Wallac, Gaithersburg, Md.). 25 pM of [^125I] IP-10 with tested compounds in a series of titration were added to start the reaction. After 3 hr reaction at room temperature, the amount of [^125I] IP-10 bound to the SPA beads was determined with a Wallac 1450 Microbeta counter.
# The Ki ratings for the various compounds of the present invention are given in the afore-mentioned Table 1. From these ratings and value ranges, it would be apparent to the skilled artisan that the compounds of the invention have excellent utility as CXCR3 receptor antagonists.
row,Compound,IC50 [µM]
1,CC[C@H]1CN(c2nc(N)c(C(=O)NCCNS(C)(=O)=O)nc2Cl)CCN1C1CCN(Cc2ccc(C#N)cc2)CC1 [compound 247],0.025 to 0.1
2,CC[C@H]1CN(c2nc(N)c(C(N)=O)nc2Cl)CCN1C1CCN(Cc2ccc(Cl)cc2CC(=O)N2CC[C@H](O)C2)CC1 [compound 48],> 0.1
3,CC[C@H]1CN(c2nc(N)c(C(=O)NC(=N)NC)nc2Cl)CCN1C1CCN(Cc2ccc(Cl)cc2)CC1 [compound 390],< 0.025
4,CC[C@H]1CN(c2nc(N)c(C(=O)NCCNS(N)(=O)=O)nc2Cl)CCN1C1CCN(Cc2ccc(Cl)cc2C#N)CC1 [compound 267],< 0.025
5,CC[C@H]1CN(c2nc(N)c(C(N)=O)nc2Cl)CCN1C1CCN(Cc2ccc(Cl)cc2[C@@H](O)C(=O)NC)CC1 [compound 44],> 0.1
6,CC[C@H]1CN(c2nc(N)c(C(=O)NCCO)nc2Cl)CCN1C1CCN(Cc2ccc(Cl)cc2OCCNS(=O)(=O)N(C)C)CC1 [compound 147],< 0.025
7,CC[C@H]1CN(c2nc(N)c(C(=O)NCCNS(=O)(=O)C(F)(F)F)nc2Cl)CCN1C1CCN(Cc2ccc(Cl)cc2)CC1 [compound 238],< 0.025
8,CC[C@H]1CN(c2nc(N)c(C(=O)OC)nc2Cl)CCN1C1CCN(Cc2ccc(C#N)cc2OCCOC)CC1 [compound 308],> 0.1
9,CC[C@H]1CN(c2nc(N)c(C(=O)NC)nc2Cl)CCN1C1(C)CCN(Cc2ccc(Cl)cc2C(=O)NC)CC1 [compound 81],> 0.1
10,CC[C@H]1CN(c2nc(N)c(C(=O)NCCO)nc2Cl)CCN1C1CCN(Cc2ccc(OS(C)(=O)=O)c(F)c2)CC1 [compound 426],> 0.1
11,CC[C@H]1CN(c2nc(N)c(C(=O)NCCN)nc2Cl)CCN1C1CCN(Cc2ccc(Cl)cc2)CC1 [compound 233],< 0.025
12,CC[C@H]1CN(c2nc(N)c(C(=O)NCCO)nc2Cl)CCN1C1CCN(Cc2ccc(Cl)cc2C(=O)NC)CC1 [compound 160],< 0.025
13,CC[C@H]1CN(c2ncc(C(=O)NC3CC3)nc2C)CCN1C1CCN(C(=O)c2ccc(F)c(OC)c2)CC1 [compound 467],< 0.025
14,CC[C@H]1CN(c2nc(N)c(C(=O)NC3CC3)nc2Cl)CCN1C1CCN(Cc2ccc(Cl)cc2F)CC1 [compound 83],< 0.025
15,CC[C@H]1CN(c2ncc(C(N)=O)nc2C)CCN1C1CCN(C(C(=O)OC)c2ccc(Cl)cc2)CC1 (stereo partly shown) [compound 464],< 0.025
16,CC[C@H]1CN(c2nc(N)c(C(=O)NCCO)nc2Cl)CCN1C1CCN(C(Cc2nn[nH]n2)c2ccc(Cl)cc2)CC1 (stereo partly shown) [compound 204],> 0.1
17,CC[C@H]1CN(c2nc(N)c(C(N)=O)nc2Cl)CCN1C1CCN(C(=O)c2ccc(Cl)cc2CN2Cc3ccccc3C2)CC1 [compound 325],> 0.1
18,CC[C@H]1CN(c2nc(N)c(C(=O)NC)nc2Cl)CCN1C1CCN([C@H](CO)c2ccc(Cl)cc2)CC1 [compound 74],0.025 to 0.1
19,CC[C@H]1CN(c2nc(N)c(C(=O)NCCO)nc2Cl)CCN1C1CCN([C@@H](CO)c2ccc(Cl)cc2)CC1 [compound 109],< 0.025
20,CC[C@H]1CN(c2nc(N)c(C(=O)NCCO)nc2Cl)CCN1C1CCN(Cc2ccc(Cl)cc2O)CC1 [compound 138],< 0.025
21,CC[C@H]1CN(c2ncc(C(N)=O)nc2Cl)CCN1C1CCN(Cc2ccc(Cl)cc2F)CC1 [compound 284],< 0.025
22,CC[C@H]1CN(c2nc(N)c(C(=O)NCC(C)O)nc2Cl)CCN1C1CCN(Cc2ccc(Cl)cc2)CC1 (stereo partly shown) [compound 217],< 0.025
23,CCNC(=O)c1cnc(N2CCN(C3CCN(C(=O)c4ccc(Cl)cc4)CC3)[C@@H](CC)C2)c(C(F)(F)F)n1 [compound 484],< 0.025
24,CC[C@H]1CN(c2nc(N)c(C(N)=O)nc2Cl)CCN1C1CCN(Cc2ccc(-n3cccn3)cc2)CC1 [compound 25],0.025 to 0.1
25,CC[C@H]1CN(c2nc(N)c(C(=O)N[C@H](C)CO)nc2Cl)CCN1C1CCN(C(=O)c2ccc(Cl)cc2)CC1 [compound 335],< 0.025

row,Compound,IC50 [µM]
1,CC[C@H]1CN(c2nc(N)c(C(=O)NC)nc2Cl)CCN1C1CCN(C(=O)c2ccc(Cl)cc2N)CC1 [compound 330],< 0.025
2,CC[C@H]1CN(c2nc(N)c(C(=O)NCCO)nc2Cl)CCN1C1CCN([C@H](CO)c2ccc(C#N)cc2)CC1 [compound 153],< 0.025
3,CC[C@H]1CN(c2nc(N)c(C(=O)NC)nc2Cl)CCN1C1CCN(C(CO)c2ccc(Cl)cc2)CC1 (stereo partly shown) [compound 63],< 0.025
4,CC[C@H]1CN(c2nc(N)c(C(=O)NNC(C)=O)nc2Cl)CCN1C1CCN(C(=O)c2ccc(Cl)cc2)CC1 [compound 373],> 0.1
5,CC[C@H]1CN(c2nc(N)c(C(=O)NCCO)nc2Cl)CCN1C1CCN(C(CCO)c2ccc(Cl)cc2)CC1 (stereo partly shown) [compound 170],< 0.025
6,CCOC(=O)/N=C(\N)c1cc(Cl)ccc1CN1CCC(N2CCN(c3nc(N)c(C(=O)NCCNS(C)(=O)=O)nc3Cl)C[C@@H]2CC)CC1 [compound 246],< 0.025
7,CC[C@H]1CN(c2nc(N)c(C(=O)NC)nc2Cl)CCN1C1CCN([C@@H](C(=O)OC)c2ccc(Cl)cc2)CC1 [compound 69],< 0.025
8,CC[C@H]1CN(c2nc(N)c(C(=O)NCCO)nc2Cl)CCN1C1CCN(Cc2ccc(Cl)cc2NC(N)=O)CC1 [compound 156],< 0.025
9,CC[C@H]1CN(c2ncc(C(=O)NC3CC3)nc2C)CCN1C1CCN(C(=O)c2ccc(C)c(F)c2)CC1 [compound 459],< 0.025
10,CC[C@H]1CN(c2nc(N)c(C(=O)NC[C@@H](C)O)nc2Cl)CCN1C1CCN(Cc2ccc(Cl)cc2CCNC(C)=O)CC1 [compound 224],0.025 to 0.1
11,CC[C@H]1CN(c2nc(N)c(C(N)=O)nc2Cl)CCN1C1CCN(Cc2ccc(O)c(F)c2)CC1 [compound 428],> 0.1
12,CC[C@H]1CN(c2nc(N)c(C(=O)NC3CC3)nc2Cl)CCN1C1CCN(Cc2ccc(Cl)cc2C(N)=O)CC1 [compound 82],< 0.025
13,CC[C@H]1CN(c2nc(N)c(C(N)=O)nc2Cl)CCN1C1CCN(Cc2ccc(Cl)cc2CC(=O)OC)CC1 [compound 38],0.025 to 0.1
14,CC[C@H]1CN(c2nc(N)c(C(=O)NCCO)nc2Cl)CCN1C1CCN(Cc2ccc(F)c(OC)c2)CC1 [compound 394],< 0.025
15,CC[C@H]1CN(c2nc(N)c(C(=O)NC)nc2Cl)CCN1C1CCN(C(=O)c2ccc(Cl)cc2NC)CC1 [compound 366],> 0.1
16,CC[C@H]1CN(c2nc(N)c(C(=O)NC)nc2Cl)CCN1C1CCN([C@H](C(=O)OC)c2ccc(Cl)cc2)CC1 [compound 77],> 0.1
17,CC[C@H]1CN(c2nc(N)c(C(N)=O)nc2Cl)CCN1C1CCN(Cc2ccc(Cl)cc2C(C)CO)CC1 (stereo partly shown) [compound 14],< 0.025
18,CC[C@H]1CN(c2nc(N)c(C(N)=O)nc2Cl)CCN1C1CCN(Cc2ccc(Cl)cc2C(NC(C)=O)C(N)=O)CC1 (stereo partly shown) [compound 382],> 0.1
19,CC[C@H]1CN(c2nc(N)c(C(N)=O)nc2Cl)CCN1C1CCN(Cc2ccc(Cl)cc2C(O)CO)CC1 (stereo partly shown) [compound 7],< 0.025
20,CC[C@H]1CN(c2ncc(C(=O)NC)nc2C)CCN1C1CCN(C(=O)c2ccc(F)cc2)CC1 [compound 435],< 0.025
21,CC[C@H]1CN(c2nc(N)c(C(N)=O)nc2Cl)CCN1C1CCN(Cc2ccc(Cl)cc2C2NC(=O)NC2=O)CC1 (stereo partly shown) [compound 405],> 0.1
22,CC[C@H]1CN(c2nc(N)c(C(=O)NCCO)nc2Cl)CCN1C1CCN(Cc2ccc(F)c(F)c2N2CCC(=O)C2)CC1 [compound 188],0.025 to 0.1
23,CC[C@H]1CN(c2nc(N)c(C(=O)NCCO)nc2Cl)CCN1C1CCN(Cc2ccc(-c3csnn3)cc2)CC1 [compound 154],< 0.025
24,CC[C@H]1CN(c2nc(N)c(C(=O)NCCO)nc2Cl)CCN1C1CCN(C(=O)c2cc(F)c(F)cc2N)CC1 [compound 345],0.025 to 0.1
